Relative viability data for 5 cell lines are collected here from the supplement of paper PMC10307832.

What all share (experiment): relative viability (nuclei count vs DMSO), 5 days (fraction); higher = more cells survive
Compound in assay [1]: COC1=CC=C(C=C1)COC2=C(C=C(C=C2)CC3=CN=C(N=C3N)N)OC [GW-2580] + COc1cc2c(Oc3ccc(NC(=O)C4(C(=O)Nc5ccc(F)cc5)CC4)cc3F)ccnc2cc1OCCCN1CCOCC1 [Foretinib] (partner 0.25 µM)
Put shortly:
(§1)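 One day after seeding in 1536-well plates, lung cancer cell lines were dosed by pin tool. Dosing was either single-drug or a fixed anchor-drug dose plus five library-drug doses (not always all listed) in √10 steps. After 5 days, nuclei were stained in one fix-and-stain step and counted on 4× images, and relative viability is the nuclei count of treated wells over that of vehicle wells, given as the median of duplicate plates.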

Compound in assay [2]: COC1=CC=C(C=C1)COC2=C(C=C(C=C2)CC3=CN=C(N=C3N)N)OC [GW-2580] + O=C(CCCCCCC(=O)Nc1ccccc1)NO [Vorinostat] (partner 1 µM)
In a few lines: as §1

Compound in assay [3]: COC1=CC=C(C=C1)COC2=C(C=C(C=C2)CC3=CN=C(N=C3N)N)OC [GW-2580] + NC(=O)Nc1cc(-c2cccc(F)c2)sc1C(=O)N[C@H]1CCCNC1 [AZD7762] (partner 0.2 µM)
Put shortly:
as §1

Compound in assay [4]: COC1=CC=C(C=C1)COC2=C(C=C(C=C2)CC3=CN=C(N=C3N)N)OC [GW-2580] + Nc1ncn([C@H]2C[C@H](O)[C@@H](CO)O2)c(=O)n1 [Decitabine] (partner 2 µM)
Put shortly: as §1

LCLC-97TM1: the relative viability in assay [1] (first compound 0.08 µM) amounted to 1.01; in assay [1] (first compound 0.8 µM) it was 0.961; in assay [1] (first compound 2.53 µM) it was 1.01; in assay [1] (first compound 8 µM) it was 0.884; in assay [2] (first compound 0.08 µM) it was 0.806; in assay [2] (first compound 0.8 µM), 0.74. Moreover, the relative viability in assay [2] (first compound 2.53 µM) was determined as 0.659; in assay [2] (first compound 8 µM), 0.684; in assay [3] (first compound 0.08 µM) it was 0.2; in assay [3] (first compound 0.8 µM) it was 0.285; in assay [3] (first compound 2.53 µM), 0.281; in assay [3] (first compound 8 µM) it was 0.212. The relative viability in assay [4] (first compound 0.08 µM) came out at 0.241; in assay [4] (first compound 0.8 µM) it was 0.224; in assay [4] (first compound 2.53 µM), 0.213; in assay [4] (first compound 8 µM), 0.209.

As for LCLC-103H, the relative viability stood at 0.979 in assay [1] (first compound 0.08 µM); 0.865 in assay [1] (first compound 0.8 µM); 0.83 in assay [1] (first compound 2.53 µM); 0.676 in assay [1] (first compound 8 µM); 0.753 in assay [2] (first compound 0.08 µM); 0.851 in assay [2] (first compound 0.8 µM). For the same cell line, the relative viability was 0.791 in assay [2] (first compound 2.53 µM); 0.671 in assay [2] (first compound 8 µM); 0.884 in assay [3] (first compound 0.08 µM); 0.838 in assay [3] (first compound 0.8 µM); 0.648 in assay [3] (first compound 2.53 µM); 0.716 in assay [3] (first compound 8 µM). Also, the relative viability in assay [4] (first compound 0.08 µM) stood at 0.752; in assay [4] (first compound 0.8 µM) it was 0.724; in assay [4] (first compound 2.53 µM), 0.661; in assay [4] (first compound 8 µM), 0.706.

For LK-2, the relative viability was 1.62 in assay [1] (first compound 0.08 µM); 1.45 in assay [1] (first compound 0.8 µM); 1.05 in assay [1] (first compound 2.53 µM); 1.2 in assay [1] (first compound 8 µM); 0.242 in assay [2] (first compound 0.08 µM); 0.28 in assay [2] (first compound 0.8 µM). Further, the relative viability in assay [2] (first compound 2.53 µM) turned out to be 0.205; in assay [2] (first compound 8 µM) it was 0.311; in assay [3] (first compound 0.08 µM), 0.44; in assay [3] (first compound 0.8 µM), 0.681; in assay [3] (first compound 2.53 µM), 0.269; in assay [3] (first compound 8 µM), 0.284. Besides, the relative viability in assay [4] (first compound 0.08 µM) is 0.227; in assay [4] (first compound 0.8 µM) it was 0.3; in assay [4] (first compound 2.53 µM), 0.253; in assay [4] (first compound 8 µM) it was 0.334.

LOU-NH91: the relative viability was determined as 0.957 in assay [1] (first compound 0.08 µM); 0.969 in assay [1] (first compound 0.8 µM); 0.94 in assay [1] (first compound 2.53 µM); 1.02 in assay [1] (first compound 8 µM); 0.925 in assay [2] (first compound 0.08 µM); 1.03 in assay [2] (first compound 0.8 µM). Further, the relative viability in assay [2] (first compound 2.53 µM) is 0.801; in assay [2] (first compound 8 µM), 0.943; in assay [3] (first compound 0.08 µM) it was 0.862; in assay [3] (first compound 0.8 µM), 0.677; in assay [3] (first compound 2.53 µM), 0.743; in assay [3] (first compound 8 µM), 0.794. The relative viability in assay [4] (first compound 0.08 µM) amounted to 0.82; in assay [4] (first compound 0.8 µM), 0.861; in assay [4] (first compound 2.53 µM), 0.782; in assay [4] (first compound 8 µM), 0.905.

With LU99A, the relative viability was 0.834 in assay [1] (first compound 0.08 µM); 0.944 in assay [1] (first compound 0.8 µM); 0.724 in assay [1] (first compound 2.53 µM); 0.881 in assay [1] (first compound 8 µM); 0.646 in assay [2] (first compound 0.08 µM); 0.522 in assay [2] (first compound 0.8 µM). The relative viability in assay [2] (first compound 2.53 µM) was determined as 0.435; in assay [2] (first compound 8 µM) it was 0.528; in assay [3] (first compound 0.08 µM) it was 0.509; in assay [3] (first compound 0.8 µM), 0.315; in assay [3] (first compound 2.53 µM), 0.267; in assay [3] (first compound 8 µM), 0.281. The relative viability in assay [4] (first compound 0.08 µM) amounted to 0.924; in assay [4] (first compound 0.8 µM) it was 1.05; in assay [4] (first compound 2.53 µM), 0.812; in assay [4] (first compound 8 µM), 0.952.
